Assay results as given in article PMC6345774, “Kinetic and thermodynamic effects of phosphorylation on p53 binding to MDM2” (Scientific Reports, 2019).

Assays:
[1] = target: T1, human MDM2 (residues 2–125) (Homo sapiens, UniProt Q00987); assay: Isothermal titration calorimetry of p53-peptide binding to MDM2; conditions: ITC, 15 °C, 50 mM Tris-HCl pH 8.0, 250 mM NaCl, 0.5 mM TCEP; for ΔH of binding / Kd: peptide titrated into MDM2; for ΔH of binding: repeated twice; for Kd: read-out: Log KA (converted)
T1 construct: human MDM2 (residues 2–125); made in house; host or cells: E. coli BL21 (DE3)
Protocol: Protein concentration was determined from the absorbance of its seven Tyr residues.
Peptide binding to MDM2 was measured by using an Auto-iTC200 (Malvern Instruments, Malvern UK), as described[24],[37]. Data acquisition was carried out with a reference power of 10 µcal/s, initial delay of 60 s, spacing between injections of 150 s. In a typical ITC experiment, the p53 peptide was loaded into a 40 μl syringe and the protein was placed into the sample cell. The sequence of injections consisted of one 0.5 μl injection followed by 19 injections of 2 μl each. Control experiments loading peptide into buffer solution were also carried out for each peptide. Experiments were performed with freshly prepared protein solutions, at 15 °C in the same buffer used in fluorescence experiments. ITC experiments were performed at 15 °C rather than 25 °C to avoid aggregation of MDM2.
Each peak was integrated using NITPIC software. The areas of the peaks are related to the heat exchanged upon binding and/or dilution. This heat was corrected of the heat of dilution (i.e., the average heat of the injections after the equilibrium has reached the saturation). Titration with each peptide was repeated twice.

[2] = Far-UV CD of isolated peptides in aqueous solution (helicity); type: physicochemical; conditions: 5 °C, 50 mM phosphate pH 6.8; for molar ellipticity at 222 nm, [Θ]222: far-UV CD; for % Helix in water ([Θ]222): from molar ellipticity at 222 nm assuming 100% helix = −31500 deg cm^2 dmol^−1
Protocol: Spectra were acquired on a Jasco J815 spectropolarimeter (Jasco, Japan) interfaced with a Peltier unit. The instrument was periodically calibrated with (+) 10-camphorsulphonic acid. Far-UV measurements (in aqueous or TFE solutions) were performed in 0.1-cm-pathlength quartz cells (Hellma), with a response time of 2 s, a band width of 1 nm, data were collected every 0.2 nm, and a scan velocity of 50 nm/min (or 20 nm/min). […] In all peptides, two concentrations (10 μM and 70 μM) in aqueous solutions (50 mM sodium phosphate buffer, pH 6.8 […]) were used to determine whether either the shapes or the intensities of the spectra were concentration-dependent. […] In all cases (aqueous solution or TFE titrations), the corresponding blank solutions (containing only buffer, or buffer and the corresponding amount of TFE) were subtracted from the spectra.
(§1) For the TFE titrations, a peptide concentration of 40 μM was used. The samples were prepared the day before and left overnight at 5 °C to reach equilibrium. The experiments in aqueous solution were acquired at 5 °C, in 50 mM sodium phosphate buffer, pH 6.8. Raw ellipticity was converted to molar ellipiticity, [Θ], from which the percentage of helical populations was determined. Co-solvent concentrations were indicated in percentage of volume. […] Fitting of the titration curves, obtained by observation of the molar ellipticity at 222 nm as the TFE concentration was increased, was carried out with Kaleidagraph (Synergy software).

[3] = TFE titrations monitored by CD (helical population); type: physicochemical; conditions: 5 °C, 50 mM phosphate pH 6.8, peptide 40 μM; for [TFE]1/2 (midpoint of TFE titration) / m (m-value of TFE titration): CD at 222 nm, two-state fit, ± fitting error; for % Helix in water (from ΔG in TFE titrations): from ΔG = [TFE]1/2 × m, for 1% values the error was 10%
Protocol: Unlike the above programs, which make assumptions about how the ellipticity signal relates to secondary structure content, a TFE titration allows the determination of helical content derived from the free-energy change for the equilibrium between folded (in TFE) and unfolded peptide, without any such assumptions.
as §1

[4] = target: T1, human MDM2 (residues 2–125); assay: Stopped-flow fluorescence kinetics of p53-peptide binding to MDM2; conditions: 15 °C; for Kd: ratio of kinetic rate constants, assuming two-state binding without intermediates, read-out: Kd (koff/kon); for kon / koff: stopped-flow Trp fluorescence, 50 mM Tris-HCl pH 8.0, 250 mM NaCl, 0.5 mM TCEP, peptide 0.125 μM, ± fitting error; for kon: MDM2 1–3 μM, pseudo-first order, slope, read-out: kon 10^6; for koff: y-axis intercept of pseudo-first-order plot
Protocol: Expression and purification of human MDM2 (residues 2–125) was carried out as described[23] in BL21 (DE3) cells. […] Protein concentration was determined from the absorbance of its seven Tyr residues.
The kinetics of the MDM2/p53-peptide interaction was measured at 15 °C using an Applied Photophysics stopped-flow fluorimeter in the same buffer as that used in the equilibrium fluorescence experiments. The experimental procedure has been described previously. Association kinetics was measured under pseudo-first order conditions, by keeping the MDM2 concentration in excess of that of the peptide. […] Excitation wavelength was 280 nm with a cut-off filter of 315 nm on the emission side. The slit widths were 10 nm for excitation and emission.
At each MDM2 concentration a minimum of six traces were acquired; and the fitting in all cases for all peptides was carried out with the averaging of at least four traces. The averaged trace was always fitted to a single exponential function, which yielded, kobs. Fitting to a single exponential curve was carried out by using Kaleidagraph (Synergy Software); reported errors in kobs are from the exponential fitting. The dissociation (koff) and association (kon) rate constants were obtained from the straight line: kobs=kon×[MDM2]+koff.
Errors in both rates were from the linear fitting; the errors were always larger for koff due to the extrapolation to the y-axis intercept.

[5] = target: T2, human MDM2 (residues 2–125) (human, UniProt Q00987 2-125); assay: ITC; p53 peptide in the syringe titrated into MDM2 in the cell; Auto-iTC200; 15 °C; 50 mM Tris-HCl pH 8.0, 250 mM NaCl, 0.5 mM TCEP; conditions: both partners purified
T2 construct: MDM2 (murine double minute 2), human, N-terminal domain, residues 2-125; no tag is named; also called N-terminal domain of MDM2
T2 sequence (Q00987 2-125): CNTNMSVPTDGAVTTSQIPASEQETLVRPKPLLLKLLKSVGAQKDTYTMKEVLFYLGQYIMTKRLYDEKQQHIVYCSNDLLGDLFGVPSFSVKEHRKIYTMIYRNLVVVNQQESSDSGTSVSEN

T1 sequence (Q00987 2-125): as above

Row | Molecule | TΔS of binding [1] | ΔH of binding [1] | molar ellipticity at 222 nm, [Θ]222 [2] | % Helix in water ([Θ]222) [2] | [TFE]1/2 (midpoint of TFE titration) [3] | m (m-value of TFE titration) [3] | % Helix in water (from ΔG in TFE titrations) [3] | other results
1 | CC(=O)N[C@@H](CCC(=O)O)C(=O)N[C@@H](CC(=O)O)C(=O)N[C@@H](Cc1ccccc1)C(=O)N[C@@H](CC(=O)O)C(=O)N[C@@H](CC(=O)O)C(=O)N[C@@H](CC(C)C)C(=O)N[C@@H](Cc1c[nH]c2ccccc12)C(=O)N[C@@H](CCCCN)C(=O)N[C@@H](CC(C)C)C(=O)N[C@@H](CC(C)C)C(=O)N1CCC[C@H]1C(=O)N[C@@H](CCC(=O)O)C(=O)N[C@@H](CC(N)=O)C(N)=O [P53-D18-D20] | -3.96 kcal/mol | -9.95 kcal/mol | −2811 deg cm^2 dmol^−1 | 9% | 9.8 ± 0.8 % (vol:vol) | 263 ± 47 cal mol^−1(%)^−1 | 1% | 
2 | CC(=O)N[C@@H](CCC(=O)O)C(=O)N[C@@H](CC(=O)O)C(=O)N[C@@H](Cc1ccccc1)C(=O)N[C@@H](CCC(=O)O)C(=O)N[C@@H](CC(=O)O)C(=O)N[C@@H](CC(C)C)C(=O)N[C@@H](Cc1c[nH]c2ccccc12)C(=O)N[C@@H](CCCCN)C(=O)N[C@@H](CC(C)C)C(=O)N[C@@H](CC(C)C)C(=O)N1CCC[C@H]1C(=O)N[C@@H](CCC(=O)O)C(=O)N[C@@H](CC(N)=O)C(N)=O [P53-D18-E20] | -3.03 kcal/mol | -9.90 kcal/mol | −3597 deg cm^2 dmol^−1 | 11.4% | 33 ± 5 % (vol:vol) | 112 ± 70 cal mol^−1(%)^−1 | 1% | Kd [1]: 5.89 µM
3 | CC(=O)N[C@@H](CCC(=O)O)C(=O)N[C@@H](CC(=O)O)C(=O)N[C@@H](Cc1ccccc1)C(=O)N[C@@H](CO)C(=O)N[C@@H](CC(=O)O)C(=O)N[C@@H](CC(C)C)C(=O)N[C@@H](Cc1c[nH]c2ccccc12)C(=O)N[C@@H](CCCCN)C(=O)N[C@@H](CC(C)C)C(=O)N[C@@H](CC(C)C)C(=O)N1CCC[C@H]1C(=O)N[C@@H](CCC(=O)O)C(=O)N[C@@H](CC(N)=O)C(N)=O [P53-D18] | -12.19 kcal/mol | -18.39 kcal/mol | −3313 deg cm^2 dmol^−1 | 10.5% | 12.0 ± 0.7 % (vol:vol) | 383 ± 142 cal mol^−1(%)^−1 | 1% | Kd [1]: 19.1 µM; Kd [4]: 5000 ± 3000 nM; kon [4]: 5e+06 ± 3e+06 M⁻¹ s⁻¹; koff [4]: 23 ± 9 s⁻¹
4 | CC(=O)N[C@@H](CCC(=O)O)C(=O)N[C@H](C(=O)N[C@@H](Cc1ccccc1)C(=O)N[C@@H](CC(=O)O)C(=O)N[C@@H](CC(=O)O)C(=O)N[C@@H](CC(C)C)C(=O)N[C@@H](Cc1c[nH]c2ccccc12)C(=O)N[C@@H](CCCCN)C(=O)N[C@@H](CC(C)C)C(=O)N[C@@H](CC(C)C)C(=O)N1CCC[C@H]1C(=O)N[C@@H](CCC(=O)O)C(=O)N[C@@H](CC(N)=O)C(N)=O)[C@@H](C)O [P53-D20] |  |  | −2811 deg cm^2 dmol^−1 | 9% |  |  |  | Kd [4]: 700 ± 200 nM; kon [4]: 9.5e+06 ± 900000 M⁻¹ s⁻¹; koff [4]: 7 ± 2 s⁻¹
5 | CC(=O)N[C@@H](CCC(=O)O)C(=O)N[C@@H](CCC(=O)O)C(=O)N[C@@H](Cc1ccccc1)C(=O)N[C@@H](CO)C(=O)N[C@@H](CC(=O)O)C(=O)N[C@@H](CC(C)C)C(=O)N[C@@H](Cc1c[nH]c2ccccc12)C(=O)N[C@@H](CCCCN)C(=O)N[C@@H](CC(C)C)C(=O)N[C@@H](CC(C)C)C(=O)N1CCC[C@H]1C(=O)N[C@@H](CCC(=O)O)C(=O)N[C@@H](CC(N)=O)C(N)=O [P53-E18] | -0.26 kcal/mol | -7.02 kcal/mol | −2380 deg cm^2 dmol^−1 | 7.5% | 14 ± 5 % (vol:vol) | 103 ± 42 cal mol^−1(%)^−1 | 7 ± 1% | Kd [1]: 7.08 µM; kon [4]: 3.8e+06 ± 700000 M⁻¹ s⁻¹; koff [4]: 16 ± 2 s⁻¹
6 | CC(=O)N[C@@H](CCC(=O)O)C(=O)N[C@H](C(=O)N[C@@H](Cc1ccccc1)C(=O)N[C@@H](COP(=O)(O)O)C(=O)N[C@@H](CC(=O)O)C(=O)N[C@@H](CC(C)C)C(=O)N[C@@H](Cc1c[nH]c2ccccc12)C(=O)N[C@@H](CCCCN)C(=O)N[C@@H](CC(C)C)C(=O)N[C@@H](CC(C)C)C(=O)N1CCC[C@H]1C(=O)N[C@@H](CCC(=O)O)C(=O)N[C@@H](CC(N)=O)C(N)=O)[C@@H](C)O [P53-pS] |  |  | −4614 deg cm^2 dmol^−1 | 14.6% |  |  |  | 
7 | CC(=O)N[C@@H](CCC(=O)O)C(=O)N[C@H](C(=O)N[C@@H](Cc1ccccc1)C(=O)N[C@@H](COP(=O)(O)O)C(=O)N[C@@H](CC(=O)O)C(=O)N[C@@H](CC(C)C)C(=O)N[C@@H](Cc1c[nH]c2ccccc12)C(=O)N[C@@H](CCCCN)C(=O)N[C@@H](CC(C)C)C(=O)N[C@@H](CC(C)C)C(=O)N1CCC[C@H]1C(=O)N[C@@H](CCC(=O)O)C(=O)N[C@@H](CC(N)=O)C(N)=O)[C@@H](C)OP(=O)(O)O [P53-pTpS] |  |  | −2547 deg cm^2 dmol^−1 | 8.1% |  |  |  | 
8 | Ac-EeFdDLWeeLPEN-NH2 [P53-E18-D20-E24-E25, p53 Glu17-Asn29 peptide with phosphomimetics at Thr18 and Ser20 and Lys24, Leu25 mutated to Glu] |  |  | 142.7 deg cm^2 dmol^−1 | 0% |  |  |  | binding to MDM2 in stopped-flow kinetics ([4]; no exponential behaviour in any trace at any MDM2 concentration tested): did not show any evidence of binding
9 | Ac-EDFSDLWKLLPEN-NH2 [Ac-EdFSDLWKLLPEN-NH2 (P53-D18)] |  |  |  |  |  |  |  | Kd [5]: 19 µM; Log KA [5]: 4.72; dH [5]: -18.4 kcal/mol
10 | Ac-EDFDDLWKLLPEN-NH2 [Ac-EdFdDLWKLLPEN-NH2 (P53-D18-D20)] |  |  |  |  |  |  |  | dH [5]: -9.95 kcal/mol
11 | Ac-EDFEDLWKLLPEN-NH2 [Ac-EdFeDLWKLLPEN-NH2 (P53-D18-E20)] |  |  |  |  |  |  |  | dH [5]: -9.9 kcal/mol
